Laboratory results reported in US20260070945A1, “MACROCYCLIC IMMUNOMODULATORS” (Bristol-Myers Squibb Company, priority 2022, published 2026).
Where a SMILES comes first, the peptide text is derived from it. Bridges are numbered along the chain shown (N, C = ends). [ ]: non-standard residue; d: D form. The star is where a group is joined. ξ: configuration not given here. Phe(4-COOH) = N[C@@H](Cc1ccc(C(=O)O)cc1)C(=O)O; Bip = N[C@@H](Cc1ccc(-c2ccccc2)cc1)C(=O)O; Phe(3-Me) = Cc1cccc(C[C@H](N)C(=O)O)c1; Val(3-OH) = CC(C)(O)[C@H](N)C(=O)O; 4Pal = N[C@@H](Cc1ccncc1)C(=O)O; 3Thi = N[C@@H](Cc1ccsc1)C(=O)O; Cha = N[C@@H](CC1CCCCC1)C(=O)O; Cit = NC(=O)NCCC[C@H](N)C(=O)O; Thr(3ξ) = CC(O)[C@H](N)C(=O)O; Carboxymethyl = O=C(O)C*; NMeA = CN[C@@H](C)C(=O)O; Aun = NCCCCCCCCCCC(=O)O; Dab = NCC[C@H](N)C(=O)O; AEEA = NCCOCCOCC(=O)O; Piv = CC(C)(C)C(=O)*

biological target: T1, PD-1/PD-L1 interaction (PE-labeled human PD-L1-Ig binding to Jurkat cell line over-expressing human PD-1) (Homo sapiens, UniProt Q15116); assay: Jurkat-PD-1 Cell Binding High-Content Screening Assay (CBA); details: Jurkat-hPD-1 cells, PE-labeled PD-L1-Ig 20 nM final; read-out: Jurkat HPD1 PDL1 IC50
T1 construct: expressed in transfected cells; host or cells: Jurkat
How it was run: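 In this imaging assay, cells in 10% FCS medium see compound for 2 h at 37 °C and then labeled ligand at 20 nM final for 1 h. Paraformaldehyde fixation, Hoechst 33342 staining and dPBS washes precede image capture.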

T1 sequence (Q15116 25-288): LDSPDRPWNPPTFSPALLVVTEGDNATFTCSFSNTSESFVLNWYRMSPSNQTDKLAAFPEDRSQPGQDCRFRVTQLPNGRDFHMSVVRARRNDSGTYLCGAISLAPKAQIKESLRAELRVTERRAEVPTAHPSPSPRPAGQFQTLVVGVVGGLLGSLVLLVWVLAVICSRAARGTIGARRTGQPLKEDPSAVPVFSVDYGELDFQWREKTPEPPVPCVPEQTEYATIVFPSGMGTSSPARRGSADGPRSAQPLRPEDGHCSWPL

IC50 | Structure (SMILES)
128 nM | CC(C)C[C@@H]1NC(=O)[C@H](Cc2c[nH]c3ccccc23)NC(=O)[C@H](CC(=O)O)NC(=O)[C@H](Cc2ccc(OCC(=O)O)cc2)NC(=O)[C@H](C(C)O)NC(=O)CSC[C@@H](C(=O)NCCOCCOCC(=O)NCCCCCCCCCCC(=O)O)NC(=O)[C@H](CO)NC(=O)[C@H](C(C)(C)O)NC(=O)[C@H](CC2CCCCC2)NC(=O)[C@H](CCC(=O)O)NC(=O)[C@@H](CC(C)C)NC(=O)[C@H](C)N(C)C(=O)[C@H](C(C)C)NC(=O)[C@H](Cc2ccc(-c3ccccc3)cc2)NC1=O (stereo partly drawn) [Example 2448] ({CH2CO}-[Thr(3ξ)]Y(Carboxymethyl)DWL[Bip]V[NMeA][dL]E[Cha][Val(3-OH)]SC[AEEA][Aun]-OH; thioether N-14)
272 nM | CC(C)C[C@@H]1NC(=O)[C@H](Cc2c[nH]c3ccccc23)NC(=O)[C@H](CC(=O)O)NC(=O)[C@H](Cc2ccc(OCC(=O)O)cc2)NC(=O)[C@H](Cc2ccc(OCC(=O)O)cc2)NC(=O)CSC[C@@H](C(=O)NCCOCCOCC(=O)NCCCCCCCCCCC(=O)O)NC(=O)[C@H](CO)NC(=O)[C@H](Cc2cnc[nH]2)NC(=O)[C@H](CC2CCCCC2)NC(=O)[C@H](CCC(=O)O)NC(=O)[C@@H](CC(C)C)NC(=O)[C@H](C)N(C)C(=O)[C@H](C(C)C)NC(=O)[C@H](Cc2ccc(-c3ccccc3)cc2)NC1=O [Example 2449] ({CH2CO}-Y(Carboxymethyl)Y(Carboxymethyl)DWL[Bip]V[NMeA][dL]E[Cha]HSC[AEEA][Aun]-OH; thioether N-14)
13.9 nM | CC(=O)NCCCC[C@@H]1NC(=O)[C@H](Cc2ccc(-c3ccccc3)cc2)NC(=O)[C@H](Cc2ccc(O)cc2)NC(=O)[C@H](Cc2cccc(C)c2)NC(=O)[C@H](CC(=O)O)NC(=O)[C@H](Cc2ccc(OCC(=O)O)cc2)NC(=O)[C@H](C(C)O)NC(=O)CSC[C@@H](C(=O)N[C@@H](CCN)C(=O)NCCCCCCCCCCC(=O)O)NC(=O)[C@H](C(C)O)NC(=O)[C@H](C(C)C)NC(=O)[C@H](CC2CCCCC2)NC(=O)[C@H](CCN)NC(=O)[C@@H](CC(C)C)NC(=O)[C@H](C)N(C)C1=O (stereo partly drawn) [Example 2451] ({CH2CO}-[Thr(3ξ)]Y(Carboxymethyl)D[Phe(3-Me)]Y[Bip]K(Ac)[NMeA][dL][Dab][Cha]V[Thr(3ξ)]C[Dab][Aun]-OH; thioether N-14)
12.2 nM | Cc1cccc(C[C@@H]2NC(=O)[C@H](CC(=O)O)NC(=O)[C@H](Cc3ccc(OCC(=O)O)cc3)NC(=O)[C@H](C(C)O)NC(=O)CSC[C@@H](C(=O)N[C@H](CC(N)=O)C(=O)NCCCCCCCCCCC(=O)O)NC(=O)[C@H](C(C)O)NC(=O)[C@H](C(C)C)NC(=O)[C@H](CC3CCCCC3)NC(=O)[C@H](CCN)NC(=O)[C@@H](CC(C)C)NC(=O)[C@H](C)N(C)C(=O)[C@H](CCCCNC(=O)C(C)(C)C)NC(=O)[C@H](Cc3ccc(-c4ccccc4)cc3)NC(=O)[C@H](Cc3ccc(O)cc3)NC2=O)c1 (stereo partly drawn) [Example 2452] ({CH2CO}-[Thr(3ξ)]Y(Carboxymethyl)D[Phe(3-Me)]Y[Bip]K(Piv)[NMeA][dL][Dab][Cha]V[Thr(3ξ)]C[dN][Aun]-OH; thioether N-14)
13.1 nM | CC(C)C[C@H]1NC(=O)[C@H](C)N(C)C(=O)[C@H](C(C)C)NC(=O)[C@H](Cc2ccc(-c3ccccc3)cc2)NC(=O)[C@H](C(C)C)NC(=O)[C@H](Cc2c[nH]c3ccccc23)NC(=O)[C@H](CC(=O)O)NC(=O)[C@H](Cc2ccc(OCC(=O)O)cc2)NC(=O)[C@H](Cc2ccc(OCC(=O)O)cc2)NC(=O)CSC[C@@H](C(=O)NCCOCCOCC(=O)NCCCCCCCCCCC(=O)O)NC(=O)[C@H](CO)NC(=O)[C@H](C(C)C)NC(=O)[C@H](CC2CCCCC2)NC(=O)[C@H](CCN)NC1=O [Example 2453] ({CH2CO}-Y(Carboxymethyl)Y(Carboxymethyl)DWV[Bip]V[NMeA][dL][Dab][Cha]VSC[AEEA][Aun]-OH; thioether N-14)
11.1 nM | Cc1cccc(C[C@@H]2NC(=O)[C@H](CC(=O)O)NC(=O)[C@H](Cc3ccc(OCC(=O)O)cc3)NC(=O)[C@H](Cc3ccncc3)NC(=O)CSC[C@@H](C(=O)N[C@@H](CCN)C(=O)NCCCCCCCCCCC(=O)O)NC(=O)[C@H](CO)NC(=O)[C@H](CO)NC(=O)[C@H](CC3CCCCC3)NC(=O)[C@H](CCN)NC(=O)[C@@H](CC(C)C)NC(=O)[C@H](C)N(C)C(=O)[C@H](Cc3ccc(OCC(=O)O)cc3)NC(=O)[C@H](Cc3ccc(-c4ccccc4)cc3)NC(=O)[C@H](Cc3ccc(OCC(=O)O)cc3)NC2=O)c1 [Example 2454] ({CH2CO}-[4Pal]Y(Carboxymethyl)D[Phe(3-Me)]Y(Carboxymethyl)[Bip]Y(Carboxymethyl)[NMeA][dL][Dab][Cha]SSC[Dab][Aun]-OH; thioether N-14)

same assay, conditions: PE-labeled PD-L1-Ig 20 nM final, Jurkat-hPD-1 cells; read-out: Jurkat HPD1 PDL1 IC50

IC50 | Structure (SMILES)
8.4 nM | CC(C)C[C@H]1NC(=O)[C@H](C)N(C)C(=O)[C@H](C(C)C)NC(=O)[C@H](Cc2ccc(-c3ccccc3)cc2)NC(=O)[C@H](C(C)C)NC(=O)[C@H](Cc2c[nH]c3ccccc23)NC(=O)[C@H](CC(=O)O)NC(=O)[C@H](Cc2ccc(OCC(=O)O)cc2)NC(=O)[C@H](Cc2ccc(OCC(=O)O)cc2)NC(=O)CSC[C@@H](C(=O)NCCOCCOCC(=O)NCCCCCCCCCCC(=O)O)NC(=O)[C@H](CO)NC(=O)[C@H](C(C)(C)O)NC(=O)[C@H](CC2CCCCC2)NC(=O)[C@H](CCN)NC1=O [Example 2455] ({CH2CO}-Y(Carboxymethyl)Y(Carboxymethyl)DWV[Bip]V[NMeA][dL][Dab][Cha][Val(3-OH)]SC[AEEA][Aun]-OH; thioether N-14)
12.5 nM | CC(C)C[C@H]1NC(=O)[C@H](C)N(C)C(=O)[C@H](CCCNC(N)=O)NC(=O)[C@H](Cc2ccc(-c3ccccc3)cc2)NC(=O)[C@H](C(C)C)NC(=O)[C@H](Cc2c[nH]c3ccccc23)NC(=O)[C@H](CC(=O)O)NC(=O)[C@H](Cc2ccc(OCC(=O)O)cc2)NC(=O)[C@H](Cc2ccc(OCC(=O)O)cc2)NC(=O)CSC[C@@H](C(=O)NCCOCCOCC(=O)NCCCCCCCCCCC(=O)O)NC(=O)[C@H](CO)NC(=O)[C@H](C(C)(C)O)NC(=O)[C@H](CC2CCCCC2)NC(=O)[C@H](CCN)NC1=O [Example 2456] ({CH2CO}-Y(Carboxymethyl)Y(Carboxymethyl)DWV[Bip][Cit][NMeA][dL][Dab][Cha][Val(3-OH)]SC[AEEA][Aun]-OH; thioether N-14)
41.2 nM | Cc1cccc(C[C@@H]2NC(=O)[C@H](CC(=O)O)NC(=O)[C@H](Cc3ccc(OCC(=O)O)cc3)NC(=O)[C@H](Cc3ccsc3)NC(=O)CSC[C@@H](C(=O)N[C@@H](CCN)C(=O)NCCCCCCCCCCC(=O)O)NC(=O)[C@H](CO)NC(=O)[C@H](C(C)(C)O)NC(=O)[C@H](CC3CCCCC3)NC(=O)[C@H](Cc3cnc[nH]3)NC(=O)[C@@H](CC(C)C)NC(=O)[C@H](C)N(C)C(=O)[C@H](Cc3ccc(OCC(=O)O)cc3)NC(=O)[C@H](Cc3ccc(-c4ccccc4)cc3)NC(=O)[C@H](Cc3ccc(OCC(=O)O)cc3)NC2=O)c1 [Example 2457] ({CH2CO}-[3Thi]Y(Carboxymethyl)D[Phe(3-Me)]Y(Carboxymethyl)[Bip]Y(Carboxymethyl)[NMeA][dL]H[Cha][Val(3-OH)]SC[Dab][Aun]-OH; thioether N-14)
22.1 nM | CC(C)C[C@@H]1NC(=O)[C@H](Cc2c[nH]c3ccccc23)NC(=O)[C@H](CC(=O)O)NC(=O)[C@H](Cc2ccc(OCC(=O)O)cc2)NC(=O)[C@H](Cc2ccc(OCC(=O)O)cc2)NC(=O)CSC[C@@H](C(=O)NCCOCCOCC(=O)NCCCCCCCCCCC(=O)O)NC(=O)[C@H](CCCNC(N)=O)NC(=O)[C@H](C(C)(C)O)NC(=O)[C@H](CC2CCCCC2)NC(=O)[C@H](CCN)NC(=O)[C@@H](CC(C)C)NC(=O)[C@H](C)N(C)C(=O)[C@H](C(C)C)NC(=O)[C@H](Cc2ccc(-c3ccccc3)cc2)NC1=O [Example 2458] ({CH2CO}-Y(Carboxymethyl)Y(Carboxymethyl)DWL[Bip]V[NMeA][dL][Dab][Cha][Val(3-OH)][Cit]C[AEEA][Aun]-OH; thioether N-14)
45.1 nM | CC(=O)NCCCC[C@@H]1NC(=O)[C@H](C(C)(C)O)NC(=O)[C@H](CC2CCCCC2)NC(=O)[C@H](CCN)NC(=O)[C@@H](CC(C)C)NC(=O)[C@H](C)N(C)C(=O)[C@H](CCC(N)=O)NC(=O)[C@H](Cc2ccc(-c3ccccc3)cc2)NC(=O)[C@H](CC(C)C)NC(=O)[C@H](Cc2c[nH]c3ccccc23)NC(=O)[C@H](CC(=O)O)NC(=O)[C@H](Cc2ccc(C(=O)O)cc2)NC(=O)[C@H](Cc2ccc(OCC(=O)O)cc2)NC(=O)CSC[C@@H](C(=O)NCCOCCOCC(=O)NCCCCCCCCCCC(=O)O)NC1=O [Example 2459] ({CH2CO}-Y(Carboxymethyl)[Phe(4-COOH)]DWL[Bip]Q[NMeA][dL][Dab][Cha][Val(3-OH)]K(Ac)C[AEEA][Aun]-OH; thioether N-14)
14.9 nM | CC(=O)NCCCC[C@@H]1NC(=O)[C@H](C(C)(C)O)NC(=O)[C@H](CC2CCCCC2)NC(=O)[C@H](CCN)NC(=O)[C@@H](CC(C)C)NC(=O)[C@H](C)N(C)C(=O)[C@H](C(C)C)NC(=O)[C@H](Cc2ccc(-c3ccccc3)cc2)NC(=O)[C@H](CC(C)C)NC(=O)[C@H](Cc2c[nH]c3ccccc23)NC(=O)[C@H](CC(=O)O)NC(=O)[C@H](Cc2ccc(C(=O)O)cc2)NC(=O)[C@H](Cc2ccc(OCC(=O)O)cc2)NC(=O)CSC[C@@H](C(=O)NCCOCCOCC(=O)NCCCCCCCCCCC(=O)O)NC1=O [Example 2460] ({CH2CO}-Y(Carboxymethyl)[Phe(4-COOH)]DWL[Bip]V[NMeA][dL][Dab][Cha][Val(3-OH)]K(Ac)C[AEEA][Aun]-OH; thioether N-14)
69.3 nM | Cc1cccc(C[C@@H]2NC(=O)[C@H](CC(=O)O)NC(=O)[C@H](Cc3ccc(C(=O)O)cc3)NC(=O)[C@H](Cc3ccncc3)NC(=O)CSC[C@@H](C(=O)NCCOCCOCC(=O)NCCCCCCCCCCC(=O)O)NC(=O)[C@H](CO)NC(=O)[C@H](C(C)(C)O)NC(=O)[C@H](CC3CCCCC3)NC(=O)[C@H](CCN)NC(=O)[C@@H](CC(C)C)NC(=O)[C@H](C)N(C)C(=O)[C@H](Cc3ccc(OCC(=O)O)cc3)NC(=O)[C@H](Cc3ccc(-c4ccccc4)cc3)NC(=O)[C@H](Cc3ccc(OCC(=O)O)cc3)NC2=O)c1 [Example 2463] ({CH2CO}-[4Pal][Phe(4-COOH)]D[Phe(3-Me)]Y(Carboxymethyl)[Bip]Y(Carboxymethyl)[NMeA][dL][Dab][Cha][Val(3-OH)]SC[AEEA][Aun]-OH; thioether N-14)
